The RepoRT retention time repository

Assay: HILIC, Waters ACQUITY UPLC BEH Amide, 100 × 2.1 mm, 1.7 µm; A: water + 0.125% formic acid + 10 mM ammonium formate; B: 5% water + 95% acetonitrile + 0.125% formic acid + 10 mM ammonium formate; gradient (min/%B) 0/100 2/100 7.7/70 9.5/40 10.25/30 12.75/100 17/100
Conditions: stereoisomer not certain

`Nc1ccc(O)c(C(=O)O)c1` showed an LC retention time of 3.89 min.
`Nc1nc2ccc(Cl)cc2c2nc(-c3ccco3)nn12` showed an LC retention time of 1.07 min.
With `NC1CCN(c2cccc(Cl)n2)CC1` the LC retention time was 4.85 min.
`C=C(C)CN1CCC23c4c5ccc(O)c4OC2c2[nH]c4ccccc4c2CC3(O)C1C5` (stereo not given) showed an LC retention time of 2.93 min.
`CC(=O)NCCCCCCNC(C)=O` showed an LC retention time of 1.5 min.
Work on `COCC1=C(C(=O)OC(C)OC(=O)OC(C)C)N2C(=O)C(NC(=O)C(=NOC)c3csc(N)n3)C2SC1` (stereo not given) yielded an LC retention time of 1.12 min.
`Cc1sc(N)c(C(=O)c2cccc(C(F)(F)F)c2)c1C` gave an LC retention time of 0.94 min.
`Cc1cc2nc3c(=O)[nH]c(=O)nc-3n(CC(O)C(O)C(O)COP(=O)(O)OP(=O)(O)OCC3OC(n4cnc5c(N)ncnc54)C(O)C3O)c2cc1C` (stereo not given) gave an LC retention time of 9.52 min.
Work on `Br.CN1CCC2(c3cccc(O)c3)Cc3nc4ccccc4cc3CC2C1.O` (stereo not given) yielded an LC retention time of 5.11 min.
Compound `CN1CCN(c2nc3cc(C(F)(F)F)ccc3n3cccc23)CC1` has an LC retention time of 2.21 min.
`COC(=O)N1CCN(C(=O)Cc2ccc(Cl)c(Cl)c2)C(CN2CCCC2)C1` (stereo not given) gave an LC retention time of 2.56 min.
Work on `COc1ccc2[nH]cc(C3=CCNCC3)c2c1` yielded an LC retention time of 4.61 min.
In the case of `OC1CCCCC1O` (stereo not given) [1,2-Cyclohexanediol], the LC retention time is reported as 4.88 min.
With `O=C1CCCCC1=O` [1,2-Cyclohexanedione] the LC retention time was 5.77 min.
`O=C1CCCC(=O)C1` [1,3 Cyclohexanedione] showed an LC retention time of 1.47 min.
For `CC12CCC3c4ccc(O)cc4CCC3C1CCC2=O` (stereo not given) [1,3,5(10)-Estratrien-3-ol-17-one], the LC retention time was 1.01 min.
`Cn1c(=O)c2c([nH]c(=O)n2C)n(C)c1=O` [1,3,7-Trimethyluric acid] gave an LC retention time of 1.83 min.
`O=C(O)C1CCC(C(=O)O)CC1` (stereo not given) [1,4-Cyclohexanedicarboxylic acid] gave an LC retention time of 1.56 min.
Compound `O=C1CCC(=O)CC1` [1,4-Cyclohexanedione] has an LC retention time of 1.15 min.
With `OCC1OCC(O)C(O)C1O` (stereo not given) [1,5-Anhydrosorbitol] the LC retention time was 0.92 min.
For `Cn1c(=O)[nH]c2[nH]c(=O)n(C)c2c1=O` [1,7-Dimethyluric acid], the LC retention time was 4.09 min.
In the case of `Cn1c(=O)[nH]c2ncn(C)c2c1=O` [1,7-Dimethylxanthine], the LC retention time is reported as 1.69 min.
Compound `CC(=O)n1ccnc1` [1-Acetylimidazole] has an LC retention time of 1.37 min.
With `c1ccc(Cn2ccnc2)cc1` [1-Benzylimidazole] the LC retention time was 1.63 min.
For `Cn1cnc(C[C@H](N)C(=O)O)c1` [1-Methyl-L-histidine], the LC retention time was 9.1 min.
Work on `Cn1cnc2c(ncn2C2OC(CO)C(O)C2O)c1=N` (stereo not given) [1-Methyladenosine] yielded an LC retention time of 7.46 min.
`Cn1c(N)nc2c(ncn2C2OC(CO)C(O)C2O)c1=O` (stereo not given) [1-Methylguanosine] showed an LC retention time of 5.84 min.
`C[n+]1cccc(C(N)=O)c1` [1-Methylnicotinamide] gave an LC retention time of 6.26 min.
Work on `Cn1cc(C2OC(CO)C(O)C2O)c(=O)[nH]c1=O` (stereo not given) [1-Methylpseudouridine] yielded an LC retention time of 4.99 min.
`Cn1cc(CC(N)C(=O)O)c2ccccc21` (stereo not given) [1-Methyltryptophan] gave an LC retention time of 6.38 min.
Compound `Cn1c(=O)[nH]c2[nH]c(=O)[nH]c2c1=O` [1-Methyluric acid] has an LC retention time of 2.18 min.
`CCCCCCCCCCCCCCCCCC(=O)OCC(O)CO` (stereo not given) [1-Monostearin] showed an LC retention time of 0.99 min.
In the case of `O=c1[nH]cnc2c1ncn2C1CCC(CO)O1` (stereo not given) [2',3'-Dideoxyinosine], the LC retention time is reported as 3.44 min.
In the case of `Nc1ncnc2c1ncn2C1CC(O)C(COP(=O)(O)O)O1` (stereo not given) [2'-Deoxyadenosine-5'-monophosphate], the LC retention time is reported as 8.63 min.
Work on `Nc1ncnc2c1ncn2C1CC(O)C(CO)O1` (stereo not given) [2'-Deoxyadenosine] yielded an LC retention time of 3.92 min.
Compound `Nc1ccn(C2CC(O)C(CO)O2)c(=O)n1` (stereo not given) [2'-Deoxycytidine] has an LC retention time of 5.87 min.
In the case of `Nc1nc2c(ncn2C2CC(OP(=O)(O)O)C(CO)O2)c(=O)[nH]1` (stereo not given) [2'-Deoxyguanosine 3'-monophosphate], the LC retention time is reported as 9.43 min.
For `Nc1nc2c(ncn2C2CC(O)C(COP(=O)(O)O)O2)c(=O)[nH]1` (stereo not given) [2'-Deoxyguanosine 5'-monophosphate], the LC retention time was 9.25 min.
Compound `Nc1nc2c(ncn2C2CC(O)C(CO)O2)c(=O)[nH]1` (stereo not given) [2'-Deoxyguanosine] has an LC retention time of 6.4 min.
In the case of `COC1C(O)C(CO)OC1n1cc(C)c(N)nc1=O` (stereo not given) [2'-O-Methyl-5-methylcytidine], the LC retention time is reported as 4.93 min.
In the case of `COC1C(O)C(CO)OC1n1cc(C)c(=O)[nH]c1=O` (stereo not given) [2'-O-Methyl-5-methyluridine], the LC retention time is reported as 1.75 min.
`COC1C(O)C(CO)OC1n1ccc(N)nc1=O` (stereo not given) [2'-O-Methylcytidine] showed an LC retention time of 5.02 min.
In the case of `COC1C(O)C(CO)OC1n1cnc2c(=O)[nH]c(N)nc21` (stereo not given) [2'-O-Methylguanosine], the LC retention time is reported as 5.72 min.
With `COC1C(O)C(CO)OC1n1cnc2c(=O)[nH]cnc21` (stereo not given) [2'-O-Methylinosine] the LC retention time was 4.06 min.
For `COC1C(O)C(CO)OC1n1ccc(=O)[nH]c1=O` (stereo not given) [2'-O-Methyluridine], the LC retention time was 2.24 min.
In the case of `CC(O)C(C)O` (stereo not given) [2,3-Butanediol], the LC retention time is reported as 3.34 min.
`Nc1ccn(C2CCC(CO)O2)c(=O)n1` (stereo not given) [2,3-Dideoxycytidine] gave an LC retention time of 4.54 min.
Compound `O=c1ccn(C2CCC(CO)O2)c(=O)[nH]1` (stereo not given) [2,3-Dideoxyuridine] has an LC retention time of 1.73 min.
`NC(CCCC(N)C(=O)O)C(=O)O` (stereo not given) [2,6-Diaminopimelic acid] showed an LC retention time of 9.88 min.
`O=c1ccc2cccc(O)c2[nH]1` [2,8-Quinolinediol] showed an LC retention time of 1.53 min.
`NCCc1ccccn1` [2-(2-Aminoethyl)pyridine] showed an LC retention time of 5.52 min.
`COc1cccc(C(=O)O)c1N` [2-Amino-3-methoxybenzoic acid] gave an LC retention time of 1.27 min.
With `NCC(=O)c1ccccc1` [2-Aminoacetophenone] the LC retention time was 1.08 min.
`NCCS` [2-Aminoethanethiol] gave an LC retention time of 2.05 min.
In the case of `NCCP(=O)(O)O` [2-Aminoethylphosphonic acid], the LC retention time is reported as 9.39 min.
With `Nc1ccccc1O` [2-Aminophenol] the LC retention time was 1.22 min.
With `OCC1OC(n2cnc3c(NC4CCCC4)nc(Cl)nc32)C(O)C1O` (stereo not given) [2-Chloro-N6-cyclopentyladenosine] the LC retention time was 1.47 min.
`Nc1nc(Cl)nc2c1ncn2C1OC(CO)C(O)C1O` (stereo not given) [2-Chloroadenosine] gave an LC retention time of 2.69 min.
Compound `Nc1ccn(C2CC(O)C(COP(=O)(O)O)O2)c(=O)n1` (stereo not given) [2-Deoxycytidine-5-monophosphoric acid] has an LC retention time of 9.16 min.
`O=CCC(O)C(O)CO` (stereo not given) [2-Deoxyribose] gave an LC retention time of 1.42 min.
`O=c1ccn(C2CC(O)C(CO)O2)c(=O)[nH]1` (stereo not given) [2-Deoxyuridine] gave an LC retention time of 2.96 min.
`CCCC=CC=O` [2-Hexenal] showed an LC retention time of 1.39 min.
`CC(C)C(O)C(=O)O` (stereo not given) [2-Hydroxy-3-methylbutyric acid] gave an LC retention time of 1.29 min.
In the case of `CC(C)CC(O)C(=O)O` (stereo not given) [2-Hydroxy-4-methylpentanoic acid], the LC retention time is reported as 1.57 min.
In the case of `O=C(CO)c1ccccc1` [2-Hydroxyacetophenone], the LC retention time is reported as 4.36 min.
`O=C(C=Cc1ccccc1O)c1ccccc1` [2-Hydroxychalcone] gave an LC retention time of 1.01 min.
In the case of `O=C(O)CCC(O)C(=O)O` (stereo not given) [2-Hydroxyglutaric acid], the LC retention time is reported as 0.91 min.
`O=c1ccc2ccccc2[nH]1` [2-Hydroxyquinoline] gave an LC retention time of 1.51 min.
Work on `Oc1cc2ccccc2[nH]1` [2-Indolinone] yielded an LC retention time of 1.36 min.
With `C=Cc1ccc(O)c(OC)c1` [2-Methoxy-4-vinylphenol] the LC retention time was 8.71 min.
